Test results: ChEMBL document CHEMBL1201862, “PubChem BioAssay data set” (2004)
The source made the active and inactive calls.

Legend:
[1] = A Cell Based Secondary Assay To Explore Cytotoxicity of Compounds that Sensitize Mycobacterium Tuberculosis to Beta-Lactam Antibiotics.; type: functional
[2] = blockers of HIV-1 envelope-mediated cell-cell fusion – cherry-pick, dose response (AID 652057); type: functional, cell-based
[3] = off-target signal loss in HeLa-CEM21 co-culture – HeLa F-luc CTL cells, cherry-picked, counter-screen for HIV-1 Env fusion inhibitor project, dose response (AID 652040); type: functional, cell-based;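 further: potency for signal decrease marking cytotoxic or nonspecific inhibition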
SN12K1 = assay: cells; type: functional; conditions: Homo sapiens
P388/ADR = assay: cells; type: functional; conditions: Mus musculus
P388 = assay: cells; type: functional; conditions: Mus musculus
[4] = viability of uninfected HEp-2 cells – cell-based, HTS, cytotoxicity control for RSV inhibitor project, dose response (AID 2410); type: functional; conditions: human respiratory syncytial virus
Vero = assay: cells; type: functional, cell-based; conditions: Chlorocebus sabaeus
cells [5] = assay: cells
[6] = molecular target: T1, Fructose-bisphosphate aldolase (Mycobacterium tuberculosis, UniProt P9WQA3); assay: Fluorescence-based biochemical high throughput dose response assay for inhibitors of the fructose-bisphosphate aldolase (FBA) of M. tuberculosis.; type: functional
T1 sequence (P9WQA3 whole entry): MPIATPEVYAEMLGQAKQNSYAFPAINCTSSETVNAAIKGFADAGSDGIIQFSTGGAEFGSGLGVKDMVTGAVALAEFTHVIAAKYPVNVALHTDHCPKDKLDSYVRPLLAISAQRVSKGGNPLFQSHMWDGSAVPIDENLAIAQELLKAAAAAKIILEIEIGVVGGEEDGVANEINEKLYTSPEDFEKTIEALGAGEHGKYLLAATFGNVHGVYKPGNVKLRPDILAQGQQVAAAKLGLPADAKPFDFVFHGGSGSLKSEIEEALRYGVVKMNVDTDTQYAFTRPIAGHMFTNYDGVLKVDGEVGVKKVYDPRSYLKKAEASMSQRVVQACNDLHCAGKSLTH

[7] = HEK-293T cell viability reduction – luminescence, B-cell screen hits, cytotoxicity control for BCR NF-kB inhibitor project, dose response (AID 489021); type: functional, cell-based;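 further: HEK-293T cells carrying an NF-kB luciferase reporter; cells exposed to compound for about 14 hours before viability readout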
[8] = OVCAR-3 cell viability loss – plate reader, dry powder samples, PAX8 inhibitor project, dose response (AID 743044); type: functional, cell-based
[9] = OVCAR8 cell viability loss – plate reader, dry powder samples, PAX8 project, dose response (AID 743197); type: functional, cell-based; conditions: OVCAR-8
Paired box protein Pax-8 = Paired box protein Pax-8 (Homo sapiens, UniProt Q06710); assay: PAX8 transcriptional activity inhibition in RMG-I – RMG-I cells, luciferase, cherry-pick, dose response (AID 687027); type: functional, cell-based;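 further: luciferase reporter driven by Pax8 target thyroperoxidase promoter measured by SteadyGlo luminescence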
[10] = P. falciparum Dd2 growth inhibitors, dose response, SYBR Green, cherry-picked samples (AID 1159567); type: functional, cell-based
[11] = IGROV1 cell killing – plate reader, dry powder samples, PAX8 inhibitor project, dose response (AID 743043); type: functional, cell-based; conditions: IGROV-1
[12] = molecular target: FAD-linked sulfhydryl oxidase ALR (Homo sapiens, UniProt P55789); assay: ALR-catalysed DTT oxidation blockers – biochemical, H2O2 detection, luminescence, cherry-pick, dose response (AID 493248)
Major prion protein = Major prion protein (Homo sapiens, UniProt P04156); type: functional, cell-based
[13] = molecular target: T2, DNA repair and recombination protein RAD54-like (Homo sapiens, UniProt Q92698); assay: RAD54 Holliday junction migration blockers – biochemical, fluorescence, cherry-picked samples, dose series, confirmation (AID 651657); type: functional
T2 sequence (Q92698 whole entry): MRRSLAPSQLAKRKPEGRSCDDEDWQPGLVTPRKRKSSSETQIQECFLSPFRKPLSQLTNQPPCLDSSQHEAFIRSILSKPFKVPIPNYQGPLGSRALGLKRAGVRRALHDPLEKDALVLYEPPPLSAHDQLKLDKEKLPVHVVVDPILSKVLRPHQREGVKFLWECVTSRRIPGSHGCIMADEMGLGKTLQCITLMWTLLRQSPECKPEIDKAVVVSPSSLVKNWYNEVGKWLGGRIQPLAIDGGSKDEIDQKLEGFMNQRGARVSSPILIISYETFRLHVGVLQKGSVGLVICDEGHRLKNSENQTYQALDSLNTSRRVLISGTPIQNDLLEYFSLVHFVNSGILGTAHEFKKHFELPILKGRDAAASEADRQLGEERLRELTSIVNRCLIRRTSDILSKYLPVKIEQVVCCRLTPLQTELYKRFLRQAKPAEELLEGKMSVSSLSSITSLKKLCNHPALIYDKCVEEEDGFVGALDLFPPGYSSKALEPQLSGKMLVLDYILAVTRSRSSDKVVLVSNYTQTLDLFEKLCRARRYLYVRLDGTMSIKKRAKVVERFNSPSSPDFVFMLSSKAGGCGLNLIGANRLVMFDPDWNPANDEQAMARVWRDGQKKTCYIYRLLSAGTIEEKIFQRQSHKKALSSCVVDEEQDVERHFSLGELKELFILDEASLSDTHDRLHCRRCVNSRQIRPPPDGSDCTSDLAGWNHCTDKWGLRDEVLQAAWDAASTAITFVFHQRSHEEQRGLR

[14] = molecular target: T3, Ubiquitin-conjugating enzyme E2 N (Homo sapiens, UniProt P61088); type: functional
T3 sequence (P61088 whole entry): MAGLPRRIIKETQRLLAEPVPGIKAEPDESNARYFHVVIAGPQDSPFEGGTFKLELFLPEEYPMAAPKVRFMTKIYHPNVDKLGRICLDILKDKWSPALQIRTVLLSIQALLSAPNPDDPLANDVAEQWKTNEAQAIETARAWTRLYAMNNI

[15] = molecular target: Neurotensin receptor type 1 (Homo sapiens, UniProt P30989); type: functional;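 further: Image-based confirmatory dose-response assay measuring agonist activity at NTR1; NTR1-expressing U2OS osteosarcoma cells imaged for beta-arrestin GFP spot formation; agonist potency where compounds increase beta-arrestin recruitment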
[16] = Luminescence Cell-Based Dose Retest to Confirm Inhibitors of Cancer Stem Cells. [Related pubchem assays (depositor defined):AID2717, AID2721]; type: functional; conditions: Homo sapiens
cells [17] = assay: cells; remark: listed apart in the source
[18] = molecular target: T3, Ubiquitin-conjugating enzyme E2 N; type: functional; remark: listed apart in the source
Bcl-2-related protein A1 = molecular target: T4, Bcl-2-related protein A1 (Mus musculus, UniProt Q07440); type: functional;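 further: confirmatory dose–response counterscreen on Bfl-1, used to check hits from a UBC13 polyubiquitin inhibitor campaign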
T4 sequence (Q07440 whole entry): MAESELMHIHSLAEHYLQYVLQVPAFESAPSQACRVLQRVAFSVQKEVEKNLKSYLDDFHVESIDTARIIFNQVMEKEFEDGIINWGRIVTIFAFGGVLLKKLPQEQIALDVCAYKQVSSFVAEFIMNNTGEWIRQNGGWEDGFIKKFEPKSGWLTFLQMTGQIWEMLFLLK

[19] = molecular target: T5, DNA repair protein RAD52 homolog (Homo sapiens, UniProt P43351); type: functional, biochemical
T5 sequence (P43351 whole entry): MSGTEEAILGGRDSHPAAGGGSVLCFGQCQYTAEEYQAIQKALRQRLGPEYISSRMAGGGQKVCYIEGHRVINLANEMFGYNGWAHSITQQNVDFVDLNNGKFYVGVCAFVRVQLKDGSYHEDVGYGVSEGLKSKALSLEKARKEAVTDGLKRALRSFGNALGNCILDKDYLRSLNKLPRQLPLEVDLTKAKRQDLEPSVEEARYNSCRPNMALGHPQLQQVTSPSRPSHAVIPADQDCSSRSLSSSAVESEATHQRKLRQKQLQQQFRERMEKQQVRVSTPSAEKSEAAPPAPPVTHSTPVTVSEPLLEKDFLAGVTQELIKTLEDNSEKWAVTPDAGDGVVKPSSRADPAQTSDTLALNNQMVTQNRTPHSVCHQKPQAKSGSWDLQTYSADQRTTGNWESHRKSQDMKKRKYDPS

[20] = molecular target: T6, Trace amine-associated receptor 1 (Homo sapiens, UniProt Q96RJ0); assay: Fluorescence-based cell-based high throughput dose response assay to identify agonists of the human trace amine associated receptor 1 (TAAR1).; type: functional
T6 sequence (Q96RJ0 whole entry): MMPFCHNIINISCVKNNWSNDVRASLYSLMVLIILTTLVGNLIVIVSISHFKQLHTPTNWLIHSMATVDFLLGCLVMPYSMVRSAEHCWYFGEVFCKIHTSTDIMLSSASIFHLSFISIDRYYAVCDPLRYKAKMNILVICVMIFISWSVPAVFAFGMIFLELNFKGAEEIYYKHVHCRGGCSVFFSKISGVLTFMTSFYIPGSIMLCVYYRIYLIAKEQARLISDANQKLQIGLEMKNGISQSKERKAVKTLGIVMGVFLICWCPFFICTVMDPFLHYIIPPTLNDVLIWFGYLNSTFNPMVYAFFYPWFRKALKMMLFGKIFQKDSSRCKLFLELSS

cells [21] = type: functional, cell-based
[22] = molecular target: T6, Trace amine-associated receptor 1; assay: Counterscreen for agonists of the human trace amine associated receptor 1 (hTAAR1): Fluorescence-based cell-based high throughput dose response assay to identify hTAAR1 agonist that also desensitize TAAR1 receptor response.; type: functional
cells [23] = type: functional, cell-based; remark: listed apart in the source
H9c2 = assay: cells; type: functional, cell-based; conditions: Rattus norvegicus, H9c2, Myocardium;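 further: confirmatory concentration-response retest of ultra-high-throughput screening hits for modulation of myocardial damage; cell death induced by hydrogen peroxide oxidative stress; compound pretreatment for 60 min then peroxide exposure for 2 h; potency is for protecting the cells against peroxide damage rather than for killing them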

For CS(=O)(=O)N(Cc1ccc(Cl)cc1)c1ccc(C(=O)NCCC2=CCCCC2)cc1, the CC50 [1] was > 40 µM (active), the AC50 [2] was 1.92 µM (active) and the AC50 [3] was 6.69 µM (active).
For NC(=O)c1ncn2c(=O)n(CCCl)nnc12 [MITOZOLOMIDE], the GI50 (SN12K1) was 75.2 µM (inactive), the GI50 (P388/ADR) was 12.3 µM (inactive) and the GI50 (P388) was 13.8 µM (inactive).
For COc1ccccc1OCC(=O)Nc1nc2c(s1)CCCC2, the CC50 [4] was 29.5 µM (active), the IC50 (Vero) was 24.3 µM (active) and the IC50 (cells [5]) was 28.7 µM (active).
With Cc1ccn2cc(-c3cnoc3C)nc2c1 the IC50 [6] was > 1.11 µM (active).
With CCOC(=O)c1nn(-c2ccccc2)c(C#N)c1NC(=O)c1nn(CC)cc1Br the CC50 [1] was > 40 µM (active) and the IC50 [7] was > 80 µM (inactive).
For C[C@@H]1CN([C@H](C)CO)C(=O)c2c(c3ccccc3n2C)-c2ccccc2CO[C@H]1CN(C)S(=O)(=O)c1ccc(C(F)(F)F)cc1, the AC50 [8] was 23.5 µM (active), the AC50 [9] was 27 µM (active) and the AC50 (Paired box protein Pax-8) was 4.41 µM (active). For the same compound, the AC50 [10] was 2.68 µM (active) and the AC50 [11] was 42.5 µM (active).
With COc1ccc2[nH]c3c(=S)[nH]cnc3c2c1 the AC50 [12] was 0.035 µM (active) and the IC50 (Major prion protein) was 5.91 µM (active).
For Cn1c(NCCN2CCCC2)nc2cc(-c3ccsc3)sc2c1=O, the AC50 [13] was 55.8 µM (active).
With COc1ccc(-c2cc(C(=O)NCC3CCCO3)c3cc(C(C)C)ccc3n2)cc1 (stereo not drawn) the IC50 [6] was 0.797 µM (active).
In the case of COc1cc([C@@H]2c3cc4c(cc3[C@@H](OC3OC5CO[C@@H](c6cccs6)OC5C(O)C3O)[C@H]3COC(=O)[C@H]23)OCO4)cc(OC)c1O (stereo partly drawn), the GI50 (SN12K1) is reported as 0.00838 µM (active), the GI50 (P388/ADR) is reported as 0.877 µM (active) and the GI50 (P388) is reported as 0.00815 µM (active).
With CCC1OC2(C)OC(=N)C1(C#N)C(C#N)(C#N)C2c1ccccc1 (stereo not drawn) the IC50 [6] was > 1.11 µM (active).
For CCCCCc1cc(=O)oc2c(C(CCN3CCCCC3)c3ccc(OC)cc3)c(OC)cc(OC)c12 (stereo not drawn), the IC50 [14] was > 20 µM (inactive), the EC50 [15] was 15.3 µM (active) and the AC50 [16] was 6.49 µM (active).
For COc1ccc2[nH]c3c(S)ncnc3c2c1, the IC50 (cells [17]) was > 138 µM (inactive).
For CN(C)CCCN(C(=O)c1ccc(C(=O)c2ccccc2)cc1)c1nc2cc3c(cc2s1)OCCO3, the IC50 [14] was 7.1 µM (active), the IC50 [18] was 3.92 µM (active) and the IC50 (Bcl-2-related protein A1) was > 20 µM (inactive). For the same compound, the AC50 [19] was 14.7 µM (active).
In the case of C#CCOCCOCCOCCNc1nc(N2CCN(C(=O)[C@H](CCCCN)n3cc([C@@H](N)CC(N)=O)nn3)CC2)nc(N2CCN(C(=O)[C@H](CCCCN)n3cc([C@@H](N)CC(N)=O)nn3)CC2)n1, the IC50 [14] is reported as 17.3 µM (active), the IC50 [18] is reported as 12.5 µM (active) and the IC50 (Bcl-2-related protein A1) is reported as > 20 µM (inactive).
For Cc1c2ccncc2c(C)c2c1[nH]c1ccc(OCCN(C)C)cc12, the GI50 (SN12K1) was 0.148 µM (active), the GI50 (P388/ADR) was 0.0283 µM (active) and the GI50 (P388) was 0.0153 µM (active).
For COC1(O)c2cccc(Cl)c2C(=O)N1C1(C(N)=O)CCCCC1 (stereo not drawn), the GI50 (SN12K1) was > 100 µM (inactive), the GI50 (P388/ADR) was > 100 µM (inactive) and the GI50 (P388) was > 100 µM (inactive).
With c1ccc(CCn2nnnc2C(c2cccs2)N2CCN(Cc3ccc4c(c3)OCO4)CC2)cc1 (stereo not drawn) the EC50 [20] was 0.389 µM (active), the EC50 (cells [21]) was > 29.9 µM (inactive) and the IC50 [22] was 2.19 µM (active). The IC50 (cells [23]) was > 29.9 µM (inactive).
With COc1ccc(Nc2nnc(-c3ccc(O)cc3)c3ccccc23)cc1C(N)=O the IC50 (H9c2) was 15 µM (active), the IC50 (Major prion protein) was 0.759 µM (active) and the IC50 (cells [17]) was > 138 µM (inactive).
With O=C(O)C1C2C=CC(O2)C1C(=O)NCCc1cccc(Cl)c1 (stereo not drawn) the EC50 [20] was 0.307 µM (active), the EC50 (cells [21]) was > 29.9 µM (inactive) and the IC50 [22] was 3.1 µM (active). For the same compound, the IC50 (cells [23]) was > 29.9 µM (inactive).
